The NIST ThermoML archive (doi:10.1021/acs.jced.6b00517)

Experiments:
[1] = refractive index (Na D-line) (dimensionless); conditions: 298.15 K; 101.3 kPa; Liquid; Standard Abbe refractometry
[2] = Liquid; for mass density: 298.15 K, 101.3 kPa, Vibrating tube method; for vapor or sublimation pressure: Ebulliometric method (Recirculating still)
[3] = Boiling temperature at pressure P; conditions: 101.3 kPa; Liquid; Ebulliometric method (Recirculating still)

CCCCO [butan-1-ol]
Conditions	mass density [kg/m3]	refractive index
[1]	–	1.3971
[2]	805.94	–

[2]
Conditions	vapor or sublimation pressure [kPa]
367.03 K	40
381.07 K	70

CCCCOC(=O)OCCCC [dibutyl carbonate]
Conditions	Boiling temperature at pressure P [°C]	mass density [kg/m3]	refractive index
[1]	–	–	1.4115
[2]	–	925.17	–
[3]	204.50	–	–

[2]
Conditions	vapor or sublimation pressure [kPa]
383.16 K	5
403.77 K	10
410.07 K	15
420.73 K	20
427.86 K	25
434.15 K	30
439.03 K	35
443.67 K	40
443.78 K	40
449.33 K	45
453.17 K	50
456.63 K	55
459.47 K	60
461.31 K	65
463.87 K	70
464.01 K	70
465.41 K	75
468.56 K	80
470.27 K	85
472.83 K	90
475.91 K	95
478.02 K	100
478.18 K	100

CO [methanol]
Conditions	Boiling temperature at pressure P [°C]	mass density [kg/m3]	refractive index
[1]	–	–	1.3266
[2]	–	786.61	–
[3]	64.68	–	–

[2]
Conditions	vapor or sublimation pressure [kPa]
315.78 K	40
328.56 K	70
337.33 K	100
